Earlier results, collected in patent publication US20190290635A1, “METHODS OF TREATING BRAIN CANCER USING AGENTS THAT ALTER ACTIVITY OF A METABOLIC PATHWAY” (Clear Creek Bio, Inc., priority 2018, published 2019).

Columns and labels:
[1] = 43 patients; patient with papillary carcinoma of the thyroid; cited from earlier work
[2] = 650 mg/m^2 brequinar (days 1, 8 and 15) with 75 mg/m^2 cisplatin (day 1); cited from earlier work

| Compound | tumor response observed [1] | modification of individual drug pharmacokinetic parameters in combination with cisplatin [2] |
| --- | --- | --- |
| Cc1c(-c2ccc(-c3ccccc3F)cc2)nc2ccc(F)cc2c1C(=O)O [Brequinar sodium] | One mixed response |  |
| Cc1c(-c2ccc(-c3ccccc3F)cc2)nc2ccc(F)cc2c1C(=O)O [Brequinar, 6-fluoro-2-(2′-fluoro-1,1′ biphenyl-4-yl)-3-methyl-4-quinoline carboxylic acid] |  | without significant modifications |
